By viability, T/C is commonly meant the result in the treated group divided by that in the control group, in per cent.
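Further: spheroids exposed to compounds for seven days; 100% = DMSO vehicle control viability.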

One assay relates to 889142-216-R-J1-PDC complex spheroid viability. As to the kind of experiment: Anticancer human tumor 889142-216-R-J1-PDC patient-derived bladder carcinoma cell line growth inhibition [POLQ]. The note with it: second compound 0.0316 µM; first compound 3.16 µM; active compounds read low. Put shortly:
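Growth inhibition in 3D: complex spheroids (tumor PDC, HUVEC, MSC) treated with POLQ inhibitor combinations; where Cmax unknown, highest tested concentration 10 microM, except SN-38 at 1 microM.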
Turning to `CCc1cc2c(N3CCc4c(cc(Cn5ccnc5)cc4-c4cn(C)nc4C(F)(F)F)C3=O)ccnc2c(OC)n1` + Nc1ccc(C#CCN(C(=O)Cc2ncc(C(F)(F)F)cc2C(F)(F)F)c2ccc(F)cc2)nn1, the viability, T/C is 103%.

Consider `COc1cc2cc(C(=O)CCC(=O)O)sc2cc1OC` + Nc1ccc(C#CCN(C(=O)Cc2ncc(C(F)(F)F)cc2C(F)(F)F)c2ccc(F)cc2)nn1, for which the viability, T/C was 108%.

The same assay, now with this note: second compound 0.0316 µM; first compound 10 µM; active compounds read low.
Consider `C=CC(=O)N1CCN(c2nc(=O)n(-c3c(C)ccnc3C(C)C)c3nc(-c4c(O)cccc4F)c(F)cc23)C(C)C1` (configuration not stated) + Nc1ccc(C#CCN(C(=O)Cc2ncc(C(F)(F)F)cc2C(F)(F)F)c2ccc(F)cc2)nn1, for which the viability, T/C is 93.6%.

`CC(C)n1c(=O)n(C)c2cnc3cc(F)c(-c4ccc(OCCCN5CCCCC5)nc4)cc3c21` + Nc1ccc(C#CCN(C(=O)Cc2ncc(C(F)(F)F)cc2C(F)(F)F)c2ccc(F)cc2)nn1: the viability, T/C is 95.2%.

Take `CCc1cc2c(N3CCc4c(cc(Cn5ccnc5)cc4-c4cn(C)nc4C(F)(F)F)C3=O)ccnc2c(OC)n1` + Nc1ccc(C#CCN(C(=O)Cc2ncc(C(F)(F)F)cc2C(F)(F)F)c2ccc(F)cc2)nn1: the viability, T/C was 80.2%.

In the case of `COc1cc2cc(C(=O)CCC(=O)O)sc2cc1OC` + Nc1ccc(C#CCN(C(=O)Cc2ncc(C(F)(F)F)cc2C(F)(F)F)c2ccc(F)cc2)nn1, the viability, T/C was 61.9%.

Staying with this assay, now noted: second compound 0.1 µM; first compound 0.0316 µM; active compounds read low.
In the case of `C=CC(=O)N1CCN(c2nc(=O)n(-c3c(C)ccnc3C(C)C)c3nc(-c4c(O)cccc4F)c(F)cc23)C(C)C1` (configuration not stated) + Nc1ccc(C#CCN(C(=O)Cc2ncc(C(F)(F)F)cc2C(F)(F)F)c2ccc(F)cc2)nn1, the viability, T/C is 103%.

In the case of `CC(C)n1c(=O)n(C)c2cnc3cc(F)c(-c4ccc(OCCCN5CCCCC5)nc4)cc3c21` + Nc1ccc(C#CCN(C(=O)Cc2ncc(C(F)(F)F)cc2C(F)(F)F)c2ccc(F)cc2)nn1, the viability, T/C was 122%.

Consider `CCc1cc2c(N3CCc4c(cc(Cn5ccnc5)cc4-c4cn(C)nc4C(F)(F)F)C3=O)ccnc2c(OC)n1` + Nc1ccc(C#CCN(C(=O)Cc2ncc(C(F)(F)F)cc2C(F)(F)F)c2ccc(F)cc2)nn1, for which the viability, T/C was 115%.

For `COc1cc2cc(C(=O)CCC(=O)O)sc2cc1OC` + Nc1ccc(C#CCN(C(=O)Cc2ncc(C(F)(F)F)cc2C(F)(F)F)c2ccc(F)cc2)nn1, the viability, T/C is 108%.

Still in this assay, the particulars now being: second compound 0.1 µM; first compound 0.1 µM; active compounds read low.
Consider `C=CC(=O)N1CCN(c2nc(=O)n(-c3c(C)ccnc3C(C)C)c3nc(-c4c(O)cccc4F)c(F)cc23)C(C)C1` (configuration not stated) + Nc1ccc(C#CCN(C(=O)Cc2ncc(C(F)(F)F)cc2C(F)(F)F)c2ccc(F)cc2)nn1, for which the viability, T/C was 89.2%.

For `CC(C)n1c(=O)n(C)c2cnc3cc(F)c(-c4ccc(OCCCN5CCCCC5)nc4)cc3c21` + Nc1ccc(C#CCN(C(=O)Cc2ncc(C(F)(F)F)cc2C(F)(F)F)c2ccc(F)cc2)nn1, the viability, T/C was 89.3%.

Turning to `CCc1cc2c(N3CCc4c(cc(Cn5ccnc5)cc4-c4cn(C)nc4C(F)(F)F)C3=O)ccnc2c(OC)n1` + Nc1ccc(C#CCN(C(=O)Cc2ncc(C(F)(F)F)cc2C(F)(F)F)c2ccc(F)cc2)nn1, the viability, T/C was 117%.

As to `COc1cc2cc(C(=O)CCC(=O)O)sc2cc1OC` + Nc1ccc(C#CCN(C(=O)Cc2ncc(C(F)(F)F)cc2C(F)(F)F)c2ccc(F)cc2)nn1, the viability, T/C is 89%.

Still in this assay, the particulars now being: second compound 0.1 µM; first compound 0.316 µM; active compounds read low.
As for `C=CC(=O)N1CCN(c2nc(=O)n(-c3c(C)ccnc3C(C)C)c3nc(-c4c(O)cccc4F)c(F)cc23)C(C)C1` (configuration not stated) + Nc1ccc(C#CCN(C(=O)Cc2ncc(C(F)(F)F)cc2C(F)(F)F)c2ccc(F)cc2)nn1, the viability, T/C is 109%.

Regarding `CC(C)n1c(=O)n(C)c2cnc3cc(F)c(-c4ccc(OCCCN5CCCCC5)nc4)cc3c21` + Nc1ccc(C#CCN(C(=O)Cc2ncc(C(F)(F)F)cc2C(F)(F)F)c2ccc(F)cc2)nn1, the viability, T/C was 70.7%.

For `CCc1cc2c(N3CCc4c(cc(Cn5ccnc5)cc4-c4cn(C)nc4C(F)(F)F)C3=O)ccnc2c(OC)n1` + Nc1ccc(C#CCN(C(=O)Cc2ncc(C(F)(F)F)cc2C(F)(F)F)c2ccc(F)cc2)nn1, the viability, T/C was 104%.

With `COc1cc2cc(C(=O)CCC(=O)O)sc2cc1OC` + Nc1ccc(C#CCN(C(=O)Cc2ncc(C(F)(F)F)cc2C(F)(F)F)c2ccc(F)cc2)nn1, the viability, T/C was 82.7%.

Staying with this assay, now noted: second compound 0.1 µM; first compound 1 µM; active compounds read low.
Turning to `C=CC(=O)N1CCN(c2nc(=O)n(-c3c(C)ccnc3C(C)C)c3nc(-c4c(O)cccc4F)c(F)cc23)C(C)C1` (configuration not stated) + Nc1ccc(C#CCN(C(=O)Cc2ncc(C(F)(F)F)cc2C(F)(F)F)c2ccc(F)cc2)nn1, the viability, T/C was 129%.

As to `CC(C)n1c(=O)n(C)c2cnc3cc(F)c(-c4ccc(OCCCN5CCCCC5)nc4)cc3c21` + Nc1ccc(C#CCN(C(=O)Cc2ncc(C(F)(F)F)cc2C(F)(F)F)c2ccc(F)cc2)nn1, the viability, T/C was 84%.

With `CCc1cc2c(N3CCc4c(cc(Cn5ccnc5)cc4-c4cn(C)nc4C(F)(F)F)C3=O)ccnc2c(OC)n1` + Nc1ccc(C#CCN(C(=O)Cc2ncc(C(F)(F)F)cc2C(F)(F)F)c2ccc(F)cc2)nn1, the viability, T/C is 125%.

Turning to `COc1cc2cc(C(=O)CCC(=O)O)sc2cc1OC` + Nc1ccc(C#CCN(C(=O)Cc2ncc(C(F)(F)F)cc2C(F)(F)F)c2ccc(F)cc2)nn1, the viability, T/C is 115%.

Still in this assay, the particulars now being: second compound 0.1 µM; first compound 3.16 µM; active compounds read low.
For `C=CC(=O)N1CCN(c2nc(=O)n(-c3c(C)ccnc3C(C)C)c3nc(-c4c(O)cccc4F)c(F)cc23)C(C)C1` (configuration not stated) + Nc1ccc(C#CCN(C(=O)Cc2ncc(C(F)(F)F)cc2C(F)(F)F)c2ccc(F)cc2)nn1, the viability, T/C is 111%.

As for `CC(C)n1c(=O)n(C)c2cnc3cc(F)c(-c4ccc(OCCCN5CCCCC5)nc4)cc3c21` + Nc1ccc(C#CCN(C(=O)Cc2ncc(C(F)(F)F)cc2C(F)(F)F)c2ccc(F)cc2)nn1, the viability, T/C is 62%.

`CCc1cc2c(N3CCc4c(cc(Cn5ccnc5)cc4-c4cn(C)nc4C(F)(F)F)C3=O)ccnc2c(OC)n1` + Nc1ccc(C#CCN(C(=O)Cc2ncc(C(F)(F)F)cc2C(F)(F)F)c2ccc(F)cc2)nn1: the viability, T/C was 99.2%.

For the compound `COc1cc2cc(C(=O)CCC(=O)O)sc2cc1OC` + Nc1ccc(C#CCN(C(=O)Cc2ncc(C(F)(F)F)cc2C(F)(F)F)c2ccc(F)cc2)nn1, the viability, T/C was 81.9%.

Staying with this assay, now noted: second compound 0.1 µM; first compound 10 µM; active compounds read low.
Consider `C=CC(=O)N1CCN(c2nc(=O)n(-c3c(C)ccnc3C(C)C)c3nc(-c4c(O)cccc4F)c(F)cc23)C(C)C1` (configuration not stated) + Nc1ccc(C#CCN(C(=O)Cc2ncc(C(F)(F)F)cc2C(F)(F)F)c2ccc(F)cc2)nn1, for which the viability, T/C is 102%.

Consider `CC(C)n1c(=O)n(C)c2cnc3cc(F)c(-c4ccc(OCCCN5CCCCC5)nc4)cc3c21` + Nc1ccc(C#CCN(C(=O)Cc2ncc(C(F)(F)F)cc2C(F)(F)F)c2ccc(F)cc2)nn1, for which the viability, T/C is 76.1%.

Take `CCc1cc2c(N3CCc4c(cc(Cn5ccnc5)cc4-c4cn(C)nc4C(F)(F)F)C3=O)ccnc2c(OC)n1` + Nc1ccc(C#CCN(C(=O)Cc2ncc(C(F)(F)F)cc2C(F)(F)F)c2ccc(F)cc2)nn1: the viability, T/C was 117%.

On to `COc1cc2cc(C(=O)CCC(=O)O)sc2cc1OC` + Nc1ccc(C#CCN(C(=O)Cc2ncc(C(F)(F)F)cc2C(F)(F)F)c2ccc(F)cc2)nn1, for which the viability, T/C was 79.2%.

The same assay, now with this note: second compound 0.316 µM; first compound 0.0316 µM; active compounds read low.
With `C=CC(=O)N1CCN(c2nc(=O)n(-c3c(C)ccnc3C(C)C)c3nc(-c4c(O)cccc4F)c(F)cc23)C(C)C1` (configuration not stated) + Nc1ccc(C#CCN(C(=O)Cc2ncc(C(F)(F)F)cc2C(F)(F)F)c2ccc(F)cc2)nn1, the viability, T/C was 135%.

Turning to `CC(C)n1c(=O)n(C)c2cnc3cc(F)c(-c4ccc(OCCCN5CCCCC5)nc4)cc3c21` + Nc1ccc(C#CCN(C(=O)Cc2ncc(C(F)(F)F)cc2C(F)(F)F)c2ccc(F)cc2)nn1, the viability, T/C is 95.8%.

On to `CCc1cc2c(N3CCc4c(cc(Cn5ccnc5)cc4-c4cn(C)nc4C(F)(F)F)C3=O)ccnc2c(OC)n1` + Nc1ccc(C#CCN(C(=O)Cc2ncc(C(F)(F)F)cc2C(F)(F)F)c2ccc(F)cc2)nn1, for which the viability, T/C is 98.8%.

On to `COc1cc2cc(C(=O)CCC(=O)O)sc2cc1OC` + Nc1ccc(C#CCN(C(=O)Cc2ncc(C(F)(F)F)cc2C(F)(F)F)c2ccc(F)cc2)nn1, for which the viability, T/C was 91.7%.

The same assay, now with this note: second compound 0.316 µM; first compound 0.1 µM; active compounds read low.
As to `C=CC(=O)N1CCN(c2nc(=O)n(-c3c(C)ccnc3C(C)C)c3nc(-c4c(O)cccc4F)c(F)cc23)C(C)C1` (configuration not stated) + Nc1ccc(C#CCN(C(=O)Cc2ncc(C(F)(F)F)cc2C(F)(F)F)c2ccc(F)cc2)nn1, the viability, T/C was 127%.

For `CC(C)n1c(=O)n(C)c2cnc3cc(F)c(-c4ccc(OCCCN5CCCCC5)nc4)cc3c21` + Nc1ccc(C#CCN(C(=O)Cc2ncc(C(F)(F)F)cc2C(F)(F)F)c2ccc(F)cc2)nn1, the viability, T/C was 85.1%.

With `CCc1cc2c(N3CCc4c(cc(Cn5ccnc5)cc4-c4cn(C)nc4C(F)(F)F)C3=O)ccnc2c(OC)n1` + Nc1ccc(C#CCN(C(=O)Cc2ncc(C(F)(F)F)cc2C(F)(F)F)c2ccc(F)cc2)nn1, the viability, T/C was 107%.

As for `COc1cc2cc(C(=O)CCC(=O)O)sc2cc1OC` + Nc1ccc(C#CCN(C(=O)Cc2ncc(C(F)(F)F)cc2C(F)(F)F)c2ccc(F)cc2)nn1, the viability, T/C was 86.5%.

The assay is the same for the next values; noted with them: second compound 0.316 µM; first compound 0.316 µM; active compounds read low.
For the compound `C=CC(=O)N1CCN(c2nc(=O)n(-c3c(C)ccnc3C(C)C)c3nc(-c4c(O)cccc4F)c(F)cc23)C(C)C1` (configuration not stated) + Nc1ccc(C#CCN(C(=O)Cc2ncc(C(F)(F)F)cc2C(F)(F)F)c2ccc(F)cc2)nn1, the viability, T/C is 96.3%.

With `CC(C)n1c(=O)n(C)c2cnc3cc(F)c(-c4ccc(OCCCN5CCCCC5)nc4)cc3c21` + Nc1ccc(C#CCN(C(=O)Cc2ncc(C(F)(F)F)cc2C(F)(F)F)c2ccc(F)cc2)nn1, the viability, T/C is 79.9%.

Take `CCc1cc2c(N3CCc4c(cc(Cn5ccnc5)cc4-c4cn(C)nc4C(F)(F)F)C3=O)ccnc2c(OC)n1` + Nc1ccc(C#CCN(C(=O)Cc2ncc(C(F)(F)F)cc2C(F)(F)F)c2ccc(F)cc2)nn1: the viability, T/C was 116%.

Consider `COc1cc2cc(C(=O)CCC(=O)O)sc2cc1OC` + Nc1ccc(C#CCN(C(=O)Cc2ncc(C(F)(F)F)cc2C(F)(F)F)c2ccc(F)cc2)nn1, for which the viability, T/C was 94%.

The values above are taken from PubChem BioAssay AID1963831 (Molecular Pharmacology Branch, DTP, NCI, 2024).
